Here are results for seven compounds from paper PMC12748989 (Nature Communications, 2025).

Assay [1] deals with MDA-MB-231 cells.
The test system of assay [2] is PBMC. The following applies: 12.5 µM.

As for `CC[C@H](C)[C@H](N)C(=O)N[C@@H](CCCNC(=N)N)C(=O)N[C@@H](CC(C)C)C(=O)N[C@@H](CCCCN)C(=O)N[C@@H](C)C(=O)N[C@@H](CC(C)C)C(=O)N[C@@H](C)C(=O)N[C@@H](C)C(=O)N[C@@H](CC(C)C)C(=O)N[C@@H](C)C(=O)N[C@@H](CCCCN)C(=O)N[C@@H](CCCCN)C(=O)N[C@H](C(=O)N[C@@H](CC(C)C)C(N)=O)[C@@H](C)CC` [R2], the “Average (percentage cell inhibition), Dmastoparan MDA-MB231 12.5uM” value in assay [1] is reported as 40.227%. In addition, the “Average (percentage cell inhibition), Mastoparan PBMC” value in assay [2] is given as 6.823%.

Regarding `CC[C@H](C)[C@H](N)C(=O)N[C@@H](CC(N)=O)C(=O)N[C@@H](CCCNC(=N)N)C(=O)N[C@@H](CCCCN)C(=O)N[C@@H](C)C(=O)N[C@@H](CC(C)C)C(=O)N[C@@H](C)C(=O)N[C@@H](C)C(=O)N[C@@H](CC(C)C)C(=O)N[C@@H](C)C(=O)N[C@@H](CCCCN)C(=O)N[C@@H](CCCCN)C(=O)N[C@H](C(=O)N[C@@H](CC(C)C)C(N)=O)[C@@H](C)CC` [R3], in assay [1], the “Average (percentage cell inhibition), Dmastoparan MDA-MB231 12.5uM” value was determined as 24.609%. The “Average (percentage cell inhibition), Mastoparan PBMC” value in assay [2] is on record as -2.846%.

In the case of `CC[C@H](C)[C@H](N)C(=O)N[C@@H](CC(N)=O)C(=O)N[C@@H](CC(C)C)C(=O)N[C@@H](CCCNC(=N)N)C(=O)N[C@@H](C)C(=O)N[C@@H](CC(C)C)C(=O)N[C@@H](C)C(=O)N[C@@H](C)C(=O)N[C@@H](CC(C)C)C(=O)N[C@@H](C)C(=O)N[C@@H](CCCCN)C(=O)N[C@@H](CCCCN)C(=O)N[C@H](C(=O)N[C@@H](CC(C)C)C(N)=O)[C@@H](C)CC` [R4], the “Average (percentage cell inhibition), Dmastoparan MDA-MB231 12.5uM” value in assay [1] was 36.9563%. Also, the “Average (percentage cell inhibition), Mastoparan PBMC” value in assay [2] was determined as 0.667%.

For the compound `CC[C@H](C)[C@H](N)C(=O)N[C@@H](CC(N)=O)C(=O)N[C@@H](CC(C)C)C(=O)N[C@@H](CCCCN)C(=O)N[C@@H](CCCNC(=N)N)C(=O)N[C@@H](CC(C)C)C(=O)N[C@@H](C)C(=O)N[C@@H](C)C(=O)N[C@@H](CC(C)C)C(=O)N[C@@H](C)C(=O)N[C@@H](CCCCN)C(=O)N[C@@H](CCCCN)C(=O)N[C@H](C(=O)N[C@@H](CC(C)C)C(N)=O)[C@@H](C)CC` [R5], the “Average (percentage cell inhibition), Dmastoparan MDA-MB231 12.5uM” value in assay [1] stood at 27.1833%. Further, the “Average (percentage cell inhibition), Mastoparan PBMC” value in assay [2] was -0.4192%.

Regarding `CC[C@H](C)[C@H](N)C(=O)N[C@@H](CC(N)=O)C(=O)N[C@@H](CC(C)C)C(=O)N[C@@H](CCCCN)C(=O)N[C@@H](C)C(=O)N[C@@H](CCCNC(=N)N)C(=O)N[C@@H](C)C(=O)N[C@@H](C)C(=O)N[C@@H](CC(C)C)C(=O)N[C@@H](C)C(=O)N[C@@H](CCCCN)C(=O)N[C@@H](CCCCN)C(=O)N[C@H](C(=O)N[C@@H](CC(C)C)C(N)=O)[C@@H](C)CC` [R6], the “Average (percentage cell inhibition), Dmastoparan MDA-MB231 12.5uM” value in assay [1] is 11.7131%. The “Average (percentage cell inhibition), Mastoparan PBMC” value in assay [2] is listed as -10.6069%.

Consider `CC[C@H](C)[C@H](N)C(=O)N[C@@H](CC(N)=O)C(=O)N[C@@H](CC(C)C)C(=O)N[C@@H](CCCCN)C(=O)N[C@@H](C)C(=O)N[C@@H](CC(C)C)C(=O)N[C@@H](CCCNC(=N)N)C(=O)N[C@@H](C)C(=O)N[C@@H](CC(C)C)C(=O)N[C@@H](C)C(=O)N[C@@H](CCCCN)C(=O)N[C@@H](CCCCN)C(=O)N[C@H](C(=O)N[C@@H](CC(C)C)C(N)=O)[C@@H](C)CC` [R7], for which the “Average (percentage cell inhibition), Dmastoparan MDA-MB231 12.5uM” value in assay [1] is on record as 35.9182%. The “Average (percentage cell inhibition), Mastoparan PBMC” value in assay [2] is given as 3.182%.

Regarding `CC[C@H](C)[C@H](N)C(=O)N[C@@H](CC(N)=O)C(=O)N[C@@H](CC(C)C)C(=O)N[C@@H](CCCCN)C(=O)N[C@@H](C)C(=O)N[C@@H](CC(C)C)C(=O)N[C@@H](C)C(=O)N[C@@H](CCCNC(=N)N)C(=O)N[C@@H](CC(C)C)C(=O)N[C@@H](C)C(=O)N[C@@H](CCCCN)C(=O)N[C@@H](CCCCN)C(=O)N[C@H](C(=O)N[C@@H](CC(C)C)C(N)=O)[C@@H](C)CC` [R8], in assay [1], the “Average (percentage cell inhibition), Dmastoparan MDA-MB231 12.5uM” value is 42.355%. The “Average (percentage cell inhibition), Mastoparan PBMC” value in assay [2] is on record as 4.899%.
